# Assay results published in patent publication US9303016B2, “Derivatives of aza adamantane and uses thereof” (CONNEXIOS LIFE SCIENCES PVT. LTD., priority 2011, dated 2016).
# Target: T1, human full length HSD11β1 (Homo sapiens, UniProt P28845)
# T1 construct: transient expression of human full length HSD11β1 expression vector; host or cells: CHO cells, transient transfection
# Assay: In Vitro HSD11β1 Inhibition Assay
# Format: cell-based
# Conditions: CHO cells transiently expressing human HSD11β1; 200 nM cortisone+500 uM NADPH overnight; cortisone to cortisol by LC/MS-MS; read-out: 11βHSD1 (IC50)
# How it was run: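 Whole-cell assay in CHO cells transiently transfected with full-length human HSD11β1, re-seeded 24 h after transfection. Cells incubated overnight with 200 nM cortisone plus 500 uM NADPH, with or without inhibitor. Cortisone-to-cortisol conversion measured by LC/MS-MS; IC50 (nM) from an 8-point log concentration-inhibition curve.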
# T1 sequence (P28845 whole entry): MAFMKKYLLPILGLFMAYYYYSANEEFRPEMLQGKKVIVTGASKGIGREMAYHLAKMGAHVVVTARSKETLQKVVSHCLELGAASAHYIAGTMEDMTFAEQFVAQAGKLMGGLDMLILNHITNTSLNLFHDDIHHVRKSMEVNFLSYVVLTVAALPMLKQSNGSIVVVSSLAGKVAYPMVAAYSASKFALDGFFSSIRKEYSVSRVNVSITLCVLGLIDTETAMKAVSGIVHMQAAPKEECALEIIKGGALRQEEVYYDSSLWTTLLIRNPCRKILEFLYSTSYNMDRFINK
row,IC50,Structure (SMILES)
1,150 to 200 nM,"Cc1ccc2c(c1Cl)C(C(C)CC(=O)N1C3CC4CC1CC(O)(C4)C3)C(=O)N2 (stereo not shown) [Compound 211, 4-chloro-3-[4-(5-hydroxy-2-azatricyclo[3.3.1.1^3,7]dec-2-yl)-4-oxobutan-2-yl]-5-methyl-1,3-dihydro-2H-indol-2-one]"
2,100 to 150 nM,"CC(CC(=O)N1C2CC3(O)CC1CC(F)(C2)C3)c1c[nH]c2cccc(C3CC3)c12 (stereo not shown) [Compound 213, 3-(4-cyclopropyl-1H-indol-3-yl)-1-(5-fluoro-7-hydroxy-2-azatricyclo[3.3.1.1^3,7]dec-2-yl)butan-1-one]"
3,> 250 nM,"CC(CC(=O)N1C2CC3CC1CC(CC(=O)O)(C3)C2)c1c[nH]c2cccc(-c3ccc(F)o3)c12 (stereo not shown) [Compound 215, 2-(2-(3-(4-(5-fluorofuran-2-yl)-1H-indol-3-yl)butanoyl)-2-azaadamantan-5-yl)acetic acid]"
4,> 250 nM,"Cc1cccc2c1c(C(C)CC(=O)N1C3CC4CC1CC(O)(C4)C3)cn2S(=O)(=O)c1cccc2cccnc12 (stereo not shown) [Compound 216, 1-(5-hydroxy-2-azaadamantan-2-yl)-3-(4-methyl-1-(quinolin-8-ylsulfonyl)-1H-indol-3-yl)butan-1-one]"
5,< 100 nM,"Cc1ccc2[nH]cc(C(C)CC(=O)N3C4CC5(C)CC3CC(O)(C4)C5)c2c1Cl (stereo not shown) [Compound 219, 3-(4-chloro-5-methyl-1H-indol-3-yl)-1-(5-hydroxy-7-methyl-2-azaadamantan-2-yl)butan-1-one]"
6,> 250 nM,"CC(CC(=O)N1C2CC3CC1CC(O)(C3)C2)c1c(C#N)[nH]c2cccc(C3CC3)c12 (stereo not shown) [Compound 220, 4-cyclopropyl-3-(4-(5-hydroxy-2-azaadamantan-2-yl)-4-oxobutan-2-yl)-1H-indole-2-carbonitrile]"
7,> 250 nM,"Cc1ccc2[nH]cc(C(C)CC(=O)N3C4CC5CC3CC(C#N)(C5)C4)c2c1C (stereo not shown) [Compound 221, 2-(3-(4,5-dimethyl-1H-indol-3-yl)butanoyl)-2-azaadamantane-5-carbonitrile]"
8,> 250 nM,"CC(CC(=O)N1C2CC3CC1CC(C(=O)O)(C3)C2)c1c[nH]c2cccc(-c3ccco3)c12 (stereo not shown) [Compound 222, 2-(3-(4-(furan-2-yl)-1H-indol-3-yl)butanoyl)-2-azaadamantane-5-carboxylic acid]"
9,> 250 nM,"COc1ccc2[nH]cc(C(C)CC(=O)N3C4CC5CC3CC(F)(C5)C4)c2c1 (stereo not shown) [Compound 224, 1-(5-fluoro-2-azaadamantan-2-yl)-3-(5-methoxy-1H-indol-3-yl)butan-1-one]"
10,> 250 nM,"CC(CC(=O)N1C2CC3CC1CC(Br)(C3)C2)c1c[nH]c2ccc(OS(=O)(=O)C(F)(F)F)cc12 (stereo not shown) [Compound 225, 3-(4-(5-bromo-2-azaadamantan-2-yl)-4-oxobutan-2-yl)-1H-indol-5-yl trifluoromethanesulfonate]"
11,< 100 nM,"COc1ccc2[nH]cc(C(C)CC(=O)N3C4CC5CC(C4)CC3C5)c2c1 (stereo not shown) [Compound 226, 1-(2-azaadamantan-2-yl)-3-(5-methoxy-1H-indol-3-yl)butan-1-one]"
12,< 100 nM,"COc1ccc2[nH]cc(C(C)CC(=O)N3C4CC5CC3CC(C)(C5)C4)c2c1 (stereo not shown) [Compound 227, 3-(5-methoxy-1H-indol-3-yl)-1-(5-methyl-2-azaadamantan-2-yl)butan-1-one]"
13,> 250 nM,"CC(CC(=O)N1C2CC3CC(C2)CC1C3)c1c[nH]c2ccc(OS(C)(=O)=O)cc12 (stereo not shown) [Compound 229, 3-(4-(2-azaadamantan-2-yl)-4-oxobutan-2-yl)-1H-indol-5-yl methanesulfonate]"
14,> 250 nM,"COc1ccc2[nH]cc(C(C)CC(=O)N3C4CC5CC3CC(C#N)(C5)C4)c2c1 (stereo not shown) [Compound 230, 2-(3-(5-methoxy-1H-indol-3-yl)butanoyl)-2-azaadamantane-5-carbonitrile]"
15,> 250 nM,"O=C(CCc1c[nH]c2ccccc12)N1C2CC3CC(C2)CC1C3 [Example 1, 1-(2-azatricyclo[3.3.1.1^3,7]dec-2-yl)-3-(1H-indol-3-yl)propan-1-one]"
16,100 to 150 nM,"Cc1cccc2[nH]cc(CCC(=O)N3C4CC5CC(C4)CC3C5)c12 [Example 2, 1-(2-azatricyclo[3.3.1.1^3,7]dec-2-yl)-3-(4-methyl-1H-indol-3-yl)propan-1-one]"
